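Each compound was tested at five concentrations against cells in 96-well plates for 48 hours. GI50: concentration for 50% inhibition of growth.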 Calls of active or inactive are those of the source. Rule as the data show it: active = GI50 up to about 1.1 µM and inactive = higher.
Columns and labels:
Assay in all cases: DTP human tumour cell line panel, 48 h
Malme-3M = system: Malme-3M
786-0 = system: 786-0
T47D = system: T47D
TK-10 = system: TK-10
MDA-MB-435 = system: MDA-MB-435
OVCAR-4 = system: OVCAR-4
SF-268 = system: SF-268
K562 = system: K562
NCI-H226 = system: NCI-H226
NCI-H460 = system: NCI-H460
UACC-62 = system: UACC-62
CCRF-CEM = system: CCRF-CEM
HT-29 = system: HT-29
RPMI-8226 = system: RPMI-8226
SR = system: SR
HL-60 = system: HL-60
MDA-N = system: MDA-N
SNB-19 = system: SNB-19
CAKI-1 = system: CAKI-1
RXF 393 = system: RXF 393

Row | SMILES | GI50 (Malme-3M) | GI50 (786-0) | GI50 (T47D) | GI50 (TK-10) | GI50 (MDA-MB-435) | GI50 (OVCAR-4) | GI50 (SF-268) | GI50 (K562) | GI50 (NCI-H226) | GI50 (NCI-H460) | GI50 (UACC-62) | GI50 (CCRF-CEM) | GI50 (HT-29) | GI50 (RPMI-8226) | GI50 (SR) | GI50 (HL-60) | GI50 (MDA-N) | GI50 (SNB-19) | GI50 (CAKI-1) | GI50 (RXF 393)
1 | O=C1OCC2=C1C(c1ccc3c(c1)OCO3)c1cc3c(cc1O2)OCO3 (stereo not given) | 3.1 µM (inactive) | 0.785 µM (active) | 0.7 µM (active) | 5.81 µM (inactive) | 0.0708 µM (active) | 7.94 µM (inactive) | 1.94 µM (inactive) | 0.269 µM (active) | 5.14 µM (inactive) | 0.522 µM (active) | 0.364 µM (active) | 0.667 µM (active) | 0.346 µM (active) | 0.378 µM (active) | 0.19 µM (active) | 0.134 µM (active) | 0.0782 µM (active) | 2.1 µM (inactive) | 0.807 µM (active) | 0.828 µM (active)
2 | C=C1C(=O)O[C@H]2C[C@@]3(C)[C@H](O)CCC(=C)[C@@H]3[C@@H](OC(C)=O)[C@H]12 | 1.45 µM (inactive) | 5.85 µM (inactive) | 4.65 µM (inactive) | 6.15 µM (inactive) | 15.5 µM (inactive) | 4.85 µM (inactive) | 19.2 µM (inactive) | 2.63 µM (inactive) | 15.2 µM (inactive) | 13.1 µM (inactive) | 15.9 µM (inactive) | 1 µM (active) | 5.92 µM (inactive) | 5 µM (inactive) | 2.22 µM (inactive) | 2.19 µM (inactive) | 4.31 µM (inactive) | 12.9 µM (inactive) | 1.48 µM (inactive) | 3.56 µM (inactive)
3 | CCOC(=O)c1cc2cc(Cc3ccc4[nH]c(C(=O)OCC)cc4c3)ccc2[nH]1 | 37.1 µM (inactive) | 2.86 µM (inactive) | 32.4 µM (inactive) | 13.9 µM (inactive) | 27.2 µM (inactive) | 6.7 µM (inactive) | 13.5 µM (inactive) | 21.9 µM (inactive) | 18.6 µM (inactive) | 24.1 µM (inactive) | 13.6 µM (inactive) | 57.5 µM (inactive) | 35.4 µM (inactive) | 28.6 µM (inactive) | 41.3 µM (inactive) | 9.35 µM (inactive) | 84.1 µM (inactive) | 13 µM (inactive) | 12 µM (inactive) | 9.18 µM (inactive)
4 | CCOC(=O)c1sc2c(c1OC(=O)c1cccs1)c(=O)n(-c1ccccc1)c(=S)n2-c1ccccc1 | 12.9 µM (inactive) | 10.6 µM (inactive) | 23.5 µM (inactive) | 25 µM (inactive) | 11.5 µM (inactive) | 11.7 µM (inactive) | 29.6 µM (inactive) | 19.9 µM (inactive) | 20.5 µM (inactive) | 3.63 µM (inactive) | 15.3 µM (inactive) | 5.15 µM (inactive) | 3.9 µM (inactive) | 7.55 µM (inactive) | 0.0151 µM (active) | 15.5 µM (inactive) | 30.5 µM (inactive) | 28.6 µM (inactive) | 33.1 µM (inactive) | 24.3 µM (inactive)
5 | CSC(SC)=C(C#N)C(=O)Nc1ccc(Cl)cc1 | 27.1 µM (inactive) | 31.7 µM (inactive) | 25.4 µM (inactive) | 23.8 µM (inactive) | 69.2 µM (inactive) | 29.9 µM (inactive) | 61.7 µM (inactive) | 25.9 µM (inactive) | 23.6 µM (inactive) | > 100 µM (inactive) | 46 µM (inactive) | 20.6 µM (inactive) | 35.6 µM (inactive) | 26.4 µM (inactive) | 38.1 µM (inactive) | 23.9 µM (inactive) | 74.6 µM (inactive) | 68.1 µM (inactive) | 22 µM (inactive) | 19.8 µM (inactive)
6 | ClCCCSSCCCCl | 32.3 µM (inactive) | 30.2 µM (inactive) | > 100 µM (inactive) | > 59.4 µM (inactive) | 24.3 µM (inactive) | 42.7 µM (inactive) | 39.5 µM (inactive) | 25.8 µM (inactive) | > 79.4 µM (inactive) | 35.6 µM (inactive) | 30.3 µM (inactive) | 5.08 µM (inactive) | 27.4 µM (inactive) | 31 µM (inactive) | 8.36 µM (inactive) | 3.86 µM (inactive) | 19.9 µM (inactive) | > 100 µM (inactive) | 32.2 µM (inactive) | 48.9 µM (inactive)
7 | O=C(O)/C=C\C(=O)Nc1ccc2c(c1)C(=O)c1cc(F)ccc1-2 | > 100 µM (inactive) | > 100 µM (inactive) | > 100 µM (inactive) | > 100 µM (inactive) | > 100 µM (inactive) | > 100 µM (inactive) | > 100 µM (inactive) | > 100 µM (inactive) | > 100 µM (inactive) | > 100 µM (inactive) | > 100 µM (inactive) | > 100 µM (inactive) | > 100 µM (inactive) | > 100 µM (inactive) | > 100 µM (inactive) | > 100 µM (inactive) | > 100 µM (inactive) | > 100 µM (inactive) | > 100 µM (inactive) | > 100 µM (inactive)
8 | Cc1ccc2c(O)cc(-c3ccc(Cl)s3)nc2n1 | 0.632 µM (active) | 1.21 µM (inactive) | 1.04 µM (active) | 8.87 µM (inactive) | 0.223 µM (active) | 16.3 µM (inactive) | 4.1 µM (inactive) | 0.728 µM (active) | 0.916 µM (active) | 0.564 µM (active) | 0.643 µM (active) | 0.471 µM (active) | 1.39 µM (inactive) | 0.308 µM (active) | 0.15 µM (active) | 0.203 µM (active) | 0.136 µM (active) | 1.43 µM (inactive) | 3.24 µM (inactive) | 2.76 µM (inactive)
9 | Cc1cc(-c2nc3cccc(F)c3s2)ccc1N | > 100 µM (inactive) | > 56.2 µM (inactive) | 0.033 µM (active) | 0.48 µM (active) | > 61.4 µM (inactive) | > 27.2 µM (inactive) | > 35 µM (inactive) | > 56.6 µM (inactive) | 22.1 µM (inactive) | > 20.4 µM (inactive) | > 96.4 µM (inactive) | 8.04 µM (inactive) | > 57.3 µM (inactive) | > 52.6 µM (inactive) | 2.52 µM (inactive) | 13.3 µM (inactive) | > 60.3 µM (inactive) | > 80.2 µM (inactive) | > 59.6 µM (inactive) | > 71 µM (inactive)
10 | N=c1c2c(=S)n(-c3ccccc3)c(=S)n(-c3ccccc3)c2nc(SCCCN2CCCCC2)n1-c1ccccc1 | 1.73 µM (inactive) | 1.09 µM (active) | 2.14 µM (inactive) | 1.71 µM (inactive) | 1.75 µM (inactive) | 1.81 µM (inactive) | 1.99 µM (inactive) | 1.48 µM (inactive) | 2.35 µM (inactive) | 1.93 µM (inactive) | 1.64 µM (inactive) | 0.413 µM (active) | 2.09 µM (inactive) | 0.439 µM (active) | 0.558 µM (active) | 1.81 µM (inactive) | 1.77 µM (inactive) | 2.91 µM (inactive) | 1.77 µM (inactive) | 1.64 µM (inactive)
11 | O=C1Oc2cc3c(c4cccc1c24)O[C@H](c1ccccc1)[C@@H](c1ccccc1)[C@@H]3c1ccc(Cl)cc1 | 37.3 µM (inactive) | 17.6 µM (inactive) | 58.6 µM (inactive) | 39.3 µM (inactive) | 76.7 µM (inactive) | 82 µM (inactive) | 31.9 µM (inactive) | 46.1 µM (inactive) | 76 µM (inactive) | > 100 µM (inactive) | 19.3 µM (inactive) | 49 µM (inactive) | > 100 µM (inactive) | 58.1 µM (inactive) | 18.8 µM (inactive) | > 100 µM (inactive) | > 100 µM (inactive) | 29.4 µM (inactive) | > 100 µM (inactive) | 17.4 µM (inactive)
12 | COc1ccc(/C=C(/C)[N+](=O)[O-])cc1 | 2.11 µM (inactive) | 1.26 µM (inactive) | 3.72 µM (inactive) | 1.82 µM (inactive) | 1.95 µM (inactive) | 3.09 µM (inactive) | 3.15 µM (inactive) | 2.62 µM (inactive) | 21.1 µM (inactive) | 2.18 µM (inactive) | 1.68 µM (inactive) | 0.565 µM (active) | 3.1 µM (inactive) | 0.394 µM (active) | 0.419 µM (active) | 2.62 µM (inactive) | 2.05 µM (inactive) | 5.86 µM (inactive) | 2.32 µM (inactive) | 1.69 µM (inactive)
13 | O=C(O)c1ccc(NCc2nc3cc4ccccc4cc3[nH]2)cc1 | 0.0462 µM (active) | > 100 µM (inactive) | > 100 µM (inactive) | > 100 µM (inactive) | > 100 µM (inactive) | > 90.4 µM (inactive) | > 100 µM (inactive) | > 100 µM (inactive) | > 100 µM (inactive) | > 100 µM (inactive) | > 100 µM (inactive) | > 100 µM (inactive) | > 100 µM (inactive) | > 100 µM (inactive) | > 100 µM (inactive) | > 20.5 µM (inactive) | > 100 µM (inactive) | > 100 µM (inactive) | > 100 µM (inactive) | > 100 µM (inactive)
14 | N#Cc1c(-c2cccc(Br)c2)cc(-c2ccc(Cl)cc2)nc1N | 23.7 µM (inactive) | 20.3 µM (inactive) | 29 µM (inactive) | 18.7 µM (inactive) | 18.2 µM (inactive) | 0.514 µM (active) | 24.8 µM (inactive) | 25.6 µM (inactive) | 17.5 µM (inactive) | 21.2 µM (inactive) | 15.3 µM (inactive) | 27.2 µM (inactive) | 18.7 µM (inactive) | 17 µM (inactive) | 19.1 µM (inactive) | 31 µM (inactive) | 20.5 µM (inactive) | 18.7 µM (inactive) | 25.6 µM (inactive) | 15.8 µM (inactive)
